Measured values published in PubChem BioAssay AID256 (DTP/NCI, 2004).
Where “and” joins values, the source holds several entries; their conditions need not be identical. Identical values can stand only once. Toxic doses and inconclusive results are not listed. The calls were made as follows: active = survival T/C of 150% or more; inactive = T/C below 125% in these data.

Test system: CD2F1 mice, L1210 leukemia ip, survival T/C
Assay: NCI In Vivo Anticancer Drug Screen. Data for tumor model L1210 Leukemia (intraperitoneal) in CD2F1 (CDF1) mice
Settings: higher = longer survival
How it was run: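 Vehicle-treated tumor-bearing mice served as controls (C) for compound-treated mice (T). Reported figure is T divided by C.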

[1] = endpoint: mean survival time, dose: 100.0 mg/kg/injection, schedule: Q01DX001 (ip), vehicle: saline with Tween-80
[2] = endpoint: mean survival time, dose: 200.0 mg/kg/injection, schedule: Q01DX001 (ip), vehicle: saline with Tween-80
[3] = endpoint: mean survival time, dose: 400.0 mg/kg/injection, schedule: Q01DX001 (ip), vehicle: saline with Tween-80
[4] = endpoint: mean survival time, dose: 50.0 mg/kg/injection, schedule: Q04DX003 (ip), vehicle: saline with Tween-80
[5] = endpoint: mean survival time, dose: 100.0 mg/kg/injection, schedule: Q04DX003 (ip), vehicle: saline with Tween-80
[6] = endpoint: mean survival time, dose: 200.0 mg/kg/injection, schedule: Q04DX003 (ip), vehicle: saline with Tween-80
[7] = endpoint: mean survival time, dose: 62.5 mg/kg/injection, schedule: Q01DX001 (ip), vehicle: Klucel (hydroxypropylcellulose) (HPC)
[8] = endpoint: mean survival time, dose: 25.0 mg/kg/injection, schedule: Q01DX009 (ip), vehicle: saline with Tween-80
[9] = endpoint: mean survival time, dose: 50.0 mg/kg/injection, schedule: Q01DX009 (ip), vehicle: saline with Tween-80
[10] = endpoint: mean survival time, dose: 100.0 mg/kg/injection, schedule: Q01DX009 (ip), vehicle: saline with Tween-80
[11] = endpoint: mean survival time, dose: 100.0 mg/kg/injection, schedule: Q01DX009 (ip), vehicle: Klucel (hydroxypropylcellulose) (HPC)
[12] = endpoint: mean survival time, dose: 200.0 mg/kg/injection, schedule: Q01DX009 (ip), vehicle: Klucel (hydroxypropylcellulose) (HPC)
[13] = endpoint: mean survival time, dose: 400.0 mg/kg/injection, schedule: Q01DX009 (ip), vehicle: saline with Tween-80
[14] = endpoint: mean survival time, dose: 400.0 mg/kg/injection, schedule: Q04DX003 (ip), vehicle: saline with Tween-80
[15] = endpoint: mean survival time, dose: 12.5 mg/kg/injection, schedule: Q01DX009 (ip), vehicle: saline with Tween-80

Measured: T/C

COc1ccc(N=Nc2sc(N)nc2-c2cccc([N+](=O)[O-])c2)cc1
inactive: [1] 93 % of control | [2] 90 % of control | [3] 97 % of control

Nc1ncnc(N)c1NC(=O)c1ccc(-c2ccccc2)cc1
inactive: endpoint: mean survival time, dose: 25.0 mg/kg/injection, schedule: Q04DX003 (ip), vehicle: saline with Tween-80 92 % of control | [4] 94 % of control | [5] 103 % of control

COC(=O)c1cncn1C(C)c1cccc2ccccc12 (centres undefined)
inactive: [5] 108 % of control | [6] 100 % of control

CCOC(OCC)c1nc(N)nc(N)c1-c1ccc(Cl)c(Cl)c1
inactive: endpoint: mean survival time, dose: 134.0 mg/kg/injection, schedule: Q01DX009 (ip), vehicle: other 123 % of control | endpoint: mean survival time, dose: 200.0 mg/kg/injection, schedule: Q01DX009 (ip), vehicle: other 111 % of control | endpoint: mean survival time, dose: 300.0 mg/kg/injection, schedule: Q01DX009 (ip), vehicle: other 88 % of control

COC(=O)C1C(O)C(C)C(O)C(C)/C=C\C=C(C)C(=O)Nc2c(C)c(OC(C)=O)c3c(c2O)C(=O)C(C)=C2OCOC(=C23)C(C)=CC(C)(O)C(O)C(C)C1O (centres undefined)
inactive: [4] 95 % of control | [5] 98 % of control | [6] 92 % of control

N#CCCOP(=O)(N1CC1)N1CC1
inactive: endpoint: mean survival time, dose: 3.9 mg/kg/injection, schedule: Q01DX001 (ip), vehicle: Klucel (hydroxypropylcellulose) (HPC) 100 % of control | endpoint: mean survival time, dose: 4.0 mg/kg/injection, schedule: Q01DX009 (ip), vehicle: water 104 % of control | endpoint: mean survival time, dose: 7.8 mg/kg/injection, schedule: Q01DX001 (ip), vehicle: Klucel (hydroxypropylcellulose) (HPC) 100 % of control | endpoint: mean survival time, dose: 8.0 mg/kg/injection, schedule: Q01DX009 (ip), vehicle: water 114 % of control | endpoint: mean survival time, dose: 15.6 mg/kg/injection, schedule: Q01DX001 (ip), vehicle: Klucel (hydroxypropylcellulose) (HPC) 109 % of control | endpoint: mean survival time, dose: 31.2 mg/kg/injection, schedule: Q01DX001 (ip), vehicle: Klucel (hydroxypropylcellulose) (HPC) 122 % of control | [7] 121 % of control | endpoint: mean survival time, dose: 64.0 mg/kg/injection, schedule: Q01DX009 (ip), vehicle: water 90 % of control

Cc1ccc(CSCc2ccc(C)cc2)cc1
inactive: endpoint: mean survival time, dose: 100.0 mg/kg/injection, schedule: Q04DX003 (ip), vehicle: other 100 % of control | endpoint: mean survival time, dose: 200.0 mg/kg/injection, schedule: Q04DX003 (ip), vehicle: other 107 % of control | endpoint: mean survival time, dose: 400.0 mg/kg/injection, schedule: Q04DX003 (ip), vehicle: other 97 % of control

N#C/C(C(=S)S)=C(/O)c1ccccc1
inactive: [8] 102 % of control | [9] 101 % of control | [10] 102 % of control | [5] 94 % of control

CCOC(=O)C1(C(=O)OCC)CCC(OCC)N1C(=O)c1cc2c(cc1[N+](=O)[O-])OCO2 (centres undefined)
inactive: endpoint: mean survival time, dose: 50.0 mg/kg/injection, schedule: Q01DX009 (ip), vehicle: Klucel (hydroxypropylcellulose) (HPC) 97 % of control | [11] 101 % of control | [12] 97 % of control

CN(C)c1ccc([N+](=O)[O-])cc1[N+](=O)[O-]
inactive: [7] 94 % of control | endpoint: mean survival time, dose: 125.0 mg/kg/injection, schedule: Q01DX001 (ip), vehicle: Klucel (hydroxypropylcellulose) (HPC) 94 % of control | endpoint: mean survival time, dose: 250.0 mg/kg/injection, schedule: Q01DX001 (ip), vehicle: Klucel (hydroxypropylcellulose) (HPC) 92 % of control | endpoint: mean survival time, dose: 500.0 mg/kg/injection, schedule: Q01DX001 (ip), vehicle: Klucel (hydroxypropylcellulose) (HPC) 102 % of control

COC1OCC(N=[N+]=[N-])C(OS(C)(=O)=O)C1OS(C)(=O)=O (centres undefined)
inactive: [1] 95 % of control | [10] 101 % of control | [2] 98 % of control and 94 % of control | [3] 94 % of control and 101 % of control | [13] 97 % of control

CN(C)c1ccc(/C=N/NC(=O)c2ccccc2N)cc1
inactive: [10] 92 % of control | endpoint: mean survival time, dose: 200.0 mg/kg/injection, schedule: Q01DX009 (ip), vehicle: saline with Tween-80 91 % of control | [13] 91 % of control

COC(=O)Nc1ccccc1OS(=O)(=O)N(C)C
inactive: [8] 95 % of control | [9] 104 % of control | [10] 96 % of control and 103 % of control

CN(C)C=Nc1ccc([N+](=O)[O-])cc1
inactive: [5] 101 % of control | [6] 101 % of control | [14] 92 % of control

O=C(O)C1CCC(NCc2ccccc2)CC1 (centres undefined)
inactive: [11] 100 % of control | [12] 100 % of control | endpoint: mean survival time, dose: 400.0 mg/kg/injection, schedule: Q01DX009 (ip), vehicle: Klucel (hydroxypropylcellulose) (HPC) 111 % of control

CC(=O)CC(=O)Nc1ccccc1
inactive: [15] 101 % of control | [8] 97 % of control | [9] 97 % of control

CC(=O)OC1(C)C=C/C(=N\S(=O)(=O)c2ccc(C)cc2)c2ccccc21 (centres undefined)
inactive: [5] 95 % of control | [6] 97 % of control | [14] 95 % of control

CCOC(=O)c1c[nH]n(C2OC(CO)C(O)C2O)c1=O (centres undefined)
inactive: endpoint: median survival time, dose: 45.5 mg/kg/injection, schedule: Q01DX005 (ip), vehicle: saline 96 % of control | endpoint: median survival time, dose: 90.9 mg/kg/injection, schedule: Q01DX005 (ip), vehicle: saline 96 % of control | endpoint: median survival time, dose: 181.9 mg/kg/injection, schedule: Q01DX005 (ip), vehicle: saline 98 % of control

O=C(COC(=O)C1CCCCCCC1)c1ccc(Br)cc1
inactive: [1] 100 % of control | [5] 94 % of control | [2] 107 % of control | [6] 96 % of control | [3] 97 % of control | [14] 97 % of control

C1=N/C=C\C=C/c2ccc[n+](CCCCC[n+]3ccccc3-c3ccccn3)c21
inactive: endpoint: mean survival time, dose: 7.5 mg/kg/injection, schedule: Q01DX001 (ip), vehicle: saline 98 % of control | endpoint: mean survival time, dose: 7.5 mg/kg/injection, schedule: Q04DX003 (ip), vehicle: saline 108 % of control | endpoint: mean survival time, dose: 15.0 mg/kg/injection, schedule: Q01DX001 (ip), vehicle: saline 98 % of control | endpoint: mean survival time, dose: 15.0 mg/kg/injection, schedule: Q04DX003 (ip), vehicle: saline 100 % of control | endpoint: mean survival time, dose: 30.0 mg/kg/injection, schedule: Q01DX001 (ip), vehicle: saline 98 % of control | endpoint: mean survival time, dose: 30.0 mg/kg/injection, schedule: Q04DX003 (ip), vehicle: saline 102 % of control

O=C1c2ccccc2C(Cl)=C(Cl)C1(Cl)Cl
inactive: [15] 92 % of control | [8] 101 % of control | [9] 101 % of control | [5] 96 % of control | [14] 100 % of control

Cc1ccc(P(=S)(c2ccccc2)c2ccc(C)c3ccccc23)c2ccccc12
inactive: endpoint: mean survival time, dose: 100.0 mg/kg/injection, schedule: Q01DX001 (ip), vehicle: saline 97 % of control | endpoint: mean survival time, dose: 200.0 mg/kg/injection, schedule: Q01DX001 (ip), vehicle: saline 91 % of control | endpoint: mean survival time, dose: 400.0 mg/kg/injection, schedule: Q01DX001 (ip), vehicle: saline 93 % of control

c1ccc2c(c1)ccc1c2c[n+](CCCCCCCC[n+]2cc3c4ccccc4ccc3c3ccccc32)c2ccccc12
inactive: endpoint: mean survival time, dose: 1.56 mg/kg/injection, schedule: Q04DX003 (ip), vehicle: distilled water + Tween-80 114 % of control | endpoint: mean survival time, dose: 3.13 mg/kg/injection, schedule: Q04DX003 (ip), vehicle: distilled water + Tween-80 124 % of control
